Laboratory results reported in patent publication EP4778932A1 (priority 2023, dated 2025).
Read-outs that look alike come from different tables or passages of the source.

Key:
Format in all cases: cell-based
MDA-MB-231 = assay: cells; conditions: Homo sapiens, read-out: IC50 (nM) MDA-MB-231
Procedure: (§1) MDA-MB-231, OV90, and NCI-N87 cells at defined cell densities (1,500 cells per well, 80 µL volume) were seeded into 96-well plates. The cells were cultured overnight in a constant-temperature incubator (37°C, 5% CO2). Ecteinascidin derivative solutions at a maximum concentration of 2 mM were first prepared in DMSO, and serial 1:4 gradient dilutions were performed. 1 µL of each DMSO-prepared dilution was added to 99 µL of PBS containing 10% FBS per well and mixed thoroughly. The diluted solutions (2 µL of diluted solution and 18 µL of PBS containing 10% FBS per well) were then co-incubated with the cells (37°C, 5% CO2) for five days, after which CellTiter-Glo reagent (40 µL per well) was added, and […] values were measured using an i3x microplate reader.

NCI-N87 = assay: cells; conditions: Homo sapiens, read-out: IC50 (nM) NCI-N87
Procedure: as §1

OV90 = assay: cells; conditions: Homo sapiens, OV-90, 120 h, read-out: IC50 (nM) OV90
Procedure: as §1

[1] = tested on: MDA-MB-231, OV90, and NCI-N87 cells; assay: Tumor cell proliferation inhibition assay of novel ecteinascidin derivatives, summary over the three cell lines; conditions: compared with trabectedin and lurbinectedin
Procedure: as §1, with “The” for “MDA-MB-231, OV90, and NCI-N87 cells at defined cell densities (1,500 cells per well, 80 µL volume) were seeded into 96-well plates. The”

[2] = 120 h, MDA-MB-231 cells, five days co-incubation
[3] = 120 h, NCI-N87 cells, five days co-incubation
[4] = OV90 cells, five days co-incubation

Structure (SMILES) | IC50 (MDA-MB-231; [2]) [nM] | IC50 (NCI-N87; [3]) [nM] | IC50 (OV90; [4]) [nM] | in-vitro cytotoxic activities [1] | IC50 (MDA-MB-231; MDA-MB-231, 120 h) [nM] | IC50 (NCI-N87; NCI-N87, 120 h) [nM] | IC50 (OV90) [nM]
COc1ccc2[nH]c3c(c2c1)CCN[C@]31CS[C@@H]2c3c(OC(C)=O)c(C)c4c(c3[C@H](COC1=O)N1[C@@H]2[C@H]2c3c(cc(C)c(OC)c3O)C[C@@H]([C@@H]1O)N2C)OCO4 [Lurbinectedin, reference compound] | 1 to 10 | < 1 | 1 to 10 | – | – | – | –
COc1c(C)cc2c(c1O)[C@@H]1[C@@H]3[C@@H]4SC[C@]5(NCCc6cc(N)c(F)cc65)C(=O)OC[C@@H](c5c6c(c(C)c(OC(C)=O)c54)OCO6)N3[C@@H](C#N)[C@H](C2)N1C [P1] | < 1 | < 1 | < 1 | superior to or comparable to those of trabectedin and lurbinectedin | – | – | –
COc1c(C)cc2c(c1O)[C@@H]1[C@@H]3[C@@H]4SC[C@]5(NCCc6cc(N)c(N(C)C)cc65)C(=O)OC[C@@H](c5c6c(c(C)c(OC(C)=O)c54)OCO6)N3[C@@H](C#N)[C@H](C2)N1C [P5] | – | – | – | – | 1 to 10 | 1 to 10 | 1 to 10
COc1c(C)cc2c(c1O)[C@@H]1[C@@H]3[C@@H]4SC[C@]5(NC[C@@H](O)c6cc(N)ccc65)C(=O)OC[C@@H](c5c6c(c(C)c(OC(C)=O)c54)OCO6)N3[C@@H](C#N)[C@H](C2)N1C [P9] | < 1 | < 1 | < 1 | superior to or comparable to those of trabectedin and lurbinectedin | – | – | –
COc1c(C)cc2c(c1O)[C@@H]1[C@@H]3[C@@H]4SC[C@]5(NC[C@H](O)c6cc(N)ccc65)C(=O)OC[C@@H](c5c6c(c(C)c(OC(C)=O)c54)OCO6)N3[C@@H](C#N)[C@H](C2)N1C [P10] | < 1 | < 1 | < 1 | superior to or comparable to those of trabectedin and lurbinectedin | – | – | –
COc1cc2c(cc1N)[C@H](O)CN[C@]21CS[C@@H]2c3c(OC(C)=O)c(C)c4c(c3[C@H](COC1=O)N1[C@@H]2[C@H]2c3c(cc(C)c(OC)c3O)C[C@@H]([C@@H]1C#N)N2C)OCO4 [P12] | < 1 | < 1 | < 1 | superior to or comparable to those of trabectedin and lurbinectedin | – | – | –
COc1cc2c(cc1N)[C@@H](O)CN[C@]21CS[C@@H]2c3c(OC(C)=O)c(C)c4c(c3[C@H](COC1=O)N1[C@@H]2[C@H]2c3c(cc(C)c(OC)c3O)C[C@@H]([C@@H]1C#N)N2C)OCO4 [P13] | < 1 | < 1 | < 1 | superior to or comparable to those of trabectedin and lurbinectedin | – | – | –
COc1cc2c(cc1N)[C@@H](OS(=O)(=O)O)CN[C@]21CS[C@@H]2c3c(OC(C)=O)c(C)c4c(c3[C@H](COC1=O)N1[C@@H]2[C@H]2c3c(cc(C)c(OC)c3O)C[C@@H]([C@@H]1C#N)N2C)OCO4 [P14] | > 200 | > 200 | > 200 | – | – | – | –
COc1cc2c(cc1N)C(C)(C)CN[C@]21CS[C@@H]2c3c(OC(C)=O)c(C)c4c(c3[C@H](COC1=O)N1[C@@H]2[C@H]2c3c(cc(C)c(OC)c3O)C[C@@H]([C@@H]1C#N)N2C)OCO4 [P19] | < 1 | < 1 | < 1 | superior to or comparable to those of trabectedin and lurbinectedin | – | – | –
COc1cc2c(cc1N)C(N(C)C)CN[C@]21CS[C@@H]2c3c(OC(C)=O)c(C)c4c(c3[C@H](COC1=O)N1[C@@H]2[C@H]2c3c(cc(C)c(OC)c3O)C[C@@H]([C@@H]1C#N)N2C)OCO4 (some centres unmarked) [P30] | < 1 | < 1 | < 1 | superior to or comparable to those of trabectedin and lurbinectedin | – | – | –
COc1cc2c(cc1N)C1(CC1)CN[C@]21CS[C@@H]2c3c(OC(C)=O)c(C)c4c(c3[C@H](COC1=O)N1[C@@H]2[C@H]2c3c(cc(C)c(OC)c3O)C[C@@H]([C@@H]1C#N)N2C)OCO4 [P36] | < 1 | < 1 | < 1 | superior to or comparable to those of trabectedin and lurbinectedin | – | – | –
COc1cc2c(cc1NC(=O)CO)CCN(C)[C@]21CS[C@@H]2c3c(OC(C)=O)c(C)c4c(c3[C@H](COC1=O)N1[C@@H]2[C@H]2c3c(cc(C)c(OC)c3O)C[C@@H]([C@@H]1C#N)N2C)OCO4 [P90] | < 1 | < 1 | < 1 | – | – | – | –
COc1cc2c(cc1N)[C@H](CC1CC1)CN[C@]21CS[C@@H]2c3c(OC(C)=O)c(C)c4c(c3[C@H](COC1=O)N1[C@@H]2[C@H]2c3c(cc(C)c(OC)c3O)C[C@@H]([C@@H]1C#N)N2C)OCO4 [P261] | 1 to 10 | 10 to 200 | 10 to 200 | – | – | – | –
COc1cc2c(cc1N)[C@@H](CC1CC1)CN[C@]21CS[C@@H]2c3c(OC(C)=O)c(C)c4c(c3[C@H](COC1=O)N1[C@@H]2[C@H]2c3c(cc(C)c(OC)c3O)C[C@@H]([C@@H]1C#N)N2C)OCO4 [P262] | 1 to 10 | 1 to 10 | 1 to 10 | – | – | – | –
COc1cc2c(cc1O)C(N)CN[C@]21CS[C@@H]2c3c(OC(C)=O)c(C)c4c(c3[C@H](COC1=O)N1[C@@H]2[C@H]2c3c(cc(C)c(OC)c3O)C[C@@H]([C@@H]1C#N)N2C)OCO4 (some centres unmarked) [T2] | 1 to 10 | 10 to 200 | 10 to 200 | – | – | – | –
COc1c(C)cc2c(c1O)[C@@H]1[C@@H]3[C@@H]4SC[C@]5(NCCc6cc(NC(=O)[C@H]7C[C@@H](O)C7)c(F)cc65)C(=O)OC[C@@H](c5c6c(c(C)c(OC(C)=O)c54)OCO6)N3[C@@H](C#N)[C@H](C2)N1C [T5] | < 1 | 1 to 10 | < 1 | – | – | – | –
COc1c(C)cc2c(c1O)[C@@H]1[C@@H]3[C@@H]4SC[C@]5(NCCc6c5ccc(N)c6O)C(=O)OC[C@@H](c5c6c(c(C)c(OC(C)=O)c54)OCO6)N3[C@@H](C#N)[C@H](C2)N1C [T6] | 1 to 10 | 1 to 10 | 1 to 10 | – | – | – | –
COc1c(C)cc2c(c1O)[C@@H]1[C@@H]3[C@@H]4SC[C@]5(NCCc6c5ccc(NC(=O)CO)c6O)C(=O)OC[C@@H](c5c6c(c(C)c(OC(C)=O)c54)OCO6)N3[C@@H](C#N)[C@H](C2)N1C [T7] | 1 to 10 | 1 to 10 | 1 to 10 | – | – | – | –
COc1c(C)cc2c(c1O)[C@@H]1[C@@H]3[C@@H]4SC[C@]5(NCCc6cc(N)c(O)cc65)C(=O)OC[C@@H](c5c6c(c(C)c(OC(C)=O)c54)OCO6)N3[C@@H](C#N)[C@H](C2)N1C [T8] | 1 to 10 | 1 to 10 | 1 to 10 | – | – | – | –
COc1c(C)cc2c(c1O)[C@@H]1[C@@H]3[C@@H]4SC[C@]5(NCCc6cc(NC(=O)CO)c(O)cc65)C(=O)OC[C@@H](c5c6c(c(C)c(OC(C)=O)c54)OCO6)N3[C@@H](C#N)[C@H](C2)N1C [T9] | 1 to 10 | 1 to 10 | 1 to 10 | – | – | – | –
COc1cc2c(cc1NC(=O)CO)C1(CC1)CN[C@]21CS[C@@H]2c3c(OC(C)=O)c(C)c4c(c3[C@H](COC1=O)N1[C@@H]2[C@H]2c3c(cc(C)c(OC)c3O)C[C@@H]([C@@H]1C#N)N2C)OCO4 [T11] | < 1 | < 1 | < 1 | – | – | – | –
COc1c(C)cc2c(c1O)[C@@H]1[C@@H]3[C@@H]4SC[C@]5(NCCc6cc(N)cc(O)c65)C(=O)OC[C@@H](c5c6c(c(C)c(OC(C)=O)c54)OCO6)N3[C@@H](C#N)[C@H](C2)N1C [T12] | 1 to 10 | 1 to 10 | 1 to 10 | – | – | – | –
COc1c(C)cc2c(c1O)[C@@H]1[C@@H]3[C@@H]4SC[C@]5(NCCc6cc(NC(=O)CO)cc(O)c65)C(=O)OC[C@@H](c5c6c(c(C)c(OC(C)=O)c54)OCO6)N3[C@@H](C#N)[C@H](C2)N1C [T13] | 10 to 200 | 10 to 200 | 10 to 200 | – | – | – | –
COc1c(C)cc2c(c1O)[C@@H]1[C@@H]3[C@@H]4SC[C@]5(NCCc6cc(N)c(OC)c(OC)c65)C(=O)OC[C@@H](c5c6c(c(C)c(OC(C)=O)c54)OCO6)N3[C@@H](C#N)[C@H](C2)N1C [T14] | 1 to 10 | 10 to 200 | 10 to 200 | – | – | – | –
COc1c(C)cc2c(c1O)[C@@H]1[C@@H]3[C@@H]4SC[C@]5(NCCc6cc(NC(=O)CO)c(OC)c(OC)c65)C(=O)OC[C@@H](c5c6c(c(C)c(OC(C)=O)c54)OCO6)N3[C@@H](C#N)[C@H](C2)N1C [T15] | 10 to 200 | 10 to 200 | 10 to 200 | – | – | – | –
CNc1cc2c(cc1OC)[C@@]1(CS[C@@H]3c4c(OC(C)=O)c(C)c5c(c4[C@H](COC1=O)N1[C@@H]3[C@H]3c4c(cc(C)c(OC)c4O)C[C@@H]([C@@H]1C#N)N3C)OCO5)NCC2 [T16] | 1 to 10 | < 1 | 1 to 10 | – | – | – | –
COc1c(C)cc2c(c1O)[C@@H]1[C@@H]3[C@@H]4SC[C@]5(NCC(C)(C)c6c5ccc(N)c6OC)C(=O)OC[C@@H](c5c6c(c(C)c(OC(C)=O)c54)OCO6)N3[C@@H](C#N)[C@H](C2)N1C [T18] | < 1 | < 1 | 1 to 10 | – | – | – | –
